Kd data for two compounds are collected here from ChEMBL document CHEMBL1132069, “Syntheses of two trimannose analogs each containing C-mannosyl or 5-thio-C-mannosyl residue: their affinities to concanavalin A” (Bioorg Med Chem Lett, 1999).

One may read the Kd as the free concentration of one partner at which half of the binding sites on the other are occupied at equilibrium, for simple one-to-one binding. A higher Kd goes with lower affinity.

A short description of the experiment: Dissociation constant for the binding of compound to concanavalin A (Con A) was determined by fluorescence anisotropy inhibition assay. On the technique in general: In fluorescence polarisation assays a small probe gives low polarisation when free and higher when bound to something large.

Consider `OC[C@@H]1O[C@H](CC[C@@H]2O[C@H](O)[C@H](O)[C@@H](O[C@H]3O[C@@H](CO)[C@@H](O)[C@H](O)[C@H]3O)[C@@H]2O)[C@H](O)[C@@H](O)[C@@H]1O`, for which binding was put at a Kd of 198 µM.

The compound `OC[C@@H]1O[C@H](O[C@@H]2[C@@H](O)[C@@H](O)O[C@@H](CC[C@H]3S[C@@H](CO)[C@@H](O)[C@H](O)[C@H]3O)[C@H]2O)[C@H](O)[C@@H](O)[C@@H]1O` showed a Kd of 31 µM.
